Measurements taken from US11484608B2, “Non-invasive assessment of hepatic mitochondrial metabolism by positional isotopomer NMR tracer analysis (PINTA)” (YALE UNIVERSITY, priority 2017, dated 2022).
Where two headings read alike, the source gives them in different places.

Experiments:
[1] = tested on: HPA axis, WAT lipolysis, endogenous glucose production; experiment: Leptin dose-response in streptozotocin-induced type 1 diabetic rats; format: in vivo, rat; details: T1D rats
Text: Male Sprague-Dawley rats were ordered from Charles River Laboratories (Wilmington, Mass.) at ˜250 g and were group housed (3 per cage) for 1-2 weeks until they underwent surgery under general isoflurane anesthesia for placement of polyethylene catheters in the common carotid artery (PE50 tubing, Instech Solomon, Plymouth Meeting, Pa.), and the jugular vein (PE90 tubing, Instech), and/or the portal vein (PE50 tubing, Instech), after which they were singly housed until sacrifice. Unless otherwise specified, rats were fed a regular chow diet (Harlan Teklad #2018, Indianapolis, Ind.) throughout, and fasted as described below. […] In order to induce T1D, rats were injected with streptozotocin (65 mg/kg IP, Sigma Aldrich, St. Louis, Mo.) 24 hr prior to the start of a leptin infusion study and were fasted overnight 12 hr after streptozotocin injection.
In order to examine the physiologic impact of varying doses of leptin on glucose, hormones, and lipolysis, rats were infused with stepwise increasing doses of leptin during a continuous infusion of [1,2,3,4,5,6,6-^2H7]glucose, [U-^13C16]palmitate, [1,1,2,3,3-^2H5] glycerol, and [U-^13C4] β-hydroxybutyrate starting at hour 42 of a 48 hr fast. From 42-43.5 hr of the fast rats were infused with tracer only, from hours 43.5-45 they were infused with 20 pmol/(kg-min) leptin, from hours 45-46.5 they were infused with 60 pmol/(kg-min) leptin, and from 46.5-48 hr the infusion rate was 600 pmol/(kg-min). Blood samples were taken at 43.5, 45, 46.5, and 48 hr for measurement of substrate/hormone concentrations and turnover of each tracer, as described below. In the T1D leptin dose response studies, overnight (12 hr) fasted rats were infused with stepwise increasing dose of leptin during the same tracer infusion as described above. From 12-14 hr of the fast rats were infused with tracer only, from 14-16 hr they were infused with 50 pmol/(kg-min) leptin, and from hours 16-18 they were infused with 600 pmol/(kg-min) leptin. Blood samples were taken at 14, 16, and 18 hr of the fast for measurement of substrate/hormone concentrations and turnover of each tracer, as described below.

[2] = tested on: HPA axis, WAT lipolysis, and hepatic gluconeogenesis; format: in vivo, rat
Procedure: Blood samples were taken at 14, 16, and 18 hr of the fast for measurement of substrate/hormone concentrations and turnover of each tracer, as described below. […] Liver and muscle glycogen concentrations were assessed using amyloglucosidase digestion. Liver TAG content was measured using the method of Bligh and Dyer (Bligh and Dyer, Can. J. Biochem. Physiol. 37, 911-917, 1959): lipids were extracted from livers using 2:1 chloroform:methanol, and the Sekisui triglyceride-SL reagent was used to measure triglyceride content spectrophotometrically. Liver and muscle DAG content and liver acetyl- and malonyl-CoA concentrations were measured by LC-MS/MS as described by Yu and Perry (Yu, et al. J. Biol. Chem. 2002, 277, 50230-50236; Perry, et al., J. Clin. Invest. 2017, 127, 657-669). […] The samples were homogenized in […] ice-cold methanol using a TissueLyser and filtered through a Nanosep filter. LC-MS/MS (AbSCIEX 6500 QTRAP with a Shimadzu ultrafast liquid chromatography system, negative ion mode) was again used to monitor the relevant ion pairs: succinate and [^13C4]succinate, 117/99 and 121/103, respectively; malate and [^13C4]malate, 133/115 and 137/119, respectively; and citrate and [13C6]citrate, 191/173 and 197/179, respectively. […] Hepatic PKCε translocation, gluconeogenic enzyme protein expression, ApoB (antibody from Meridian Life Science, Memphis, Tenn.), and PGC1α (antibody from Santa Cruz Biotechnology, Dallas, Tex.) protein expression were assessed by western blot. Expression of each of these proteins was normalized to GAPDH.

[3] = tested on: primary mouse hepatocytes; experiment: In vitro glucose production, VPC and lipolysis in isolated hepatocytes; format: cell-based; details: WT hepatocytes, 100 nM glucagon, 8 hr
Procedure: For in vitro glucose production and lipolysis studies, primary mouse hepatocytes were isolated by the Yale Liver Center. Following removal of cell debris by Percoll density gradient centrifugation, cells were plated on 6-well collagen-I coated dishes (4.0×10^5 cells/well) in 2 ml recovery media (DMEM High Glucose containing 10% FBS, 2% penicillin-streptomycin, 100 nM dexamethasone, 1 nM insulin, and 10 mM HEPES). After incubation for 6 hr at 37° C. and 5% CO2, the attached cells were washed once in 1×PBS and then incubated overnight in 2 ml Low Glucose Culture Media (DMEM Low Glucose supplemented with 10% FBS, 2% penicillin-streptomycin and 10 mM HEPES for glucose production studies) or Serum Free Low Glucose Culture Media (DMEM Low Glucose supplemented with 0.5% fatty acid free BSA, 2% penicillin-streptomycin and 10 mM HEPES for lipolysis assays). […] After incubation for 8 hr at 37° C. and 5% CO2, cell culture media was collected for analysis of glucose, NEFA, and glycerol concentrations as described above. VPC was determined by measuring VPC/VEGP by PINTA as described above using 300 μL of the collected media, and multiplying this ratio by the measured glucose production rate. In a subset of studies, cells were incubated for 8 hr during the glucose production assay in media containing one of the following agents (all dissolved in 0.5% DMSO), or 0.5% DMSO vehicle: 20 μM ET-18-OCH3 (Santa Cruz), 100 μM U-73122 (Sigma), 30 nM thapsigargin (Sigma), 100 nM vasopressin (Sigma) 50 μM 2-APB (R&D Systems), 70 μM caffeine (Sigma), 1 mM malic enzyme inhibitor hydroxymalonate (Sigma). To inhibit PKA, hepatocytes were incubated in H-89 […] hydrate (Sigma, 25 μM) dissolved in media, or media lacking H-89 as a control. In the insulin treatment studies, hepatocytes were incubated in 1 nM insulin with 5% BSA and glucose production media for the duration of the glucose production assay. In the in vitro atglistatin study, hepatocytes were incubated in 10 μM atglistatin in 0.1% EtOH, or 0.1% EtOH vehicle. All values were normalized to total protein content determined from whole-cell lysates by a BCA protein assay (Thermo Fisher Scientific) according to the manufacturer's instructions and expressed as fold change verses vehicle-treated cells.

[4] = target: T1, ATGL (Rattus norvegicus, UniProt P0C548); experiment: ATGL inhibitor atglistatin in 0, 6, 16 and 48 hr fasted rats; format: in vivo
T1 construct: from tissue; host or cells: live rat, in vivo (intraperitoneal dosing)
T1 sequence (P0C548 1-478): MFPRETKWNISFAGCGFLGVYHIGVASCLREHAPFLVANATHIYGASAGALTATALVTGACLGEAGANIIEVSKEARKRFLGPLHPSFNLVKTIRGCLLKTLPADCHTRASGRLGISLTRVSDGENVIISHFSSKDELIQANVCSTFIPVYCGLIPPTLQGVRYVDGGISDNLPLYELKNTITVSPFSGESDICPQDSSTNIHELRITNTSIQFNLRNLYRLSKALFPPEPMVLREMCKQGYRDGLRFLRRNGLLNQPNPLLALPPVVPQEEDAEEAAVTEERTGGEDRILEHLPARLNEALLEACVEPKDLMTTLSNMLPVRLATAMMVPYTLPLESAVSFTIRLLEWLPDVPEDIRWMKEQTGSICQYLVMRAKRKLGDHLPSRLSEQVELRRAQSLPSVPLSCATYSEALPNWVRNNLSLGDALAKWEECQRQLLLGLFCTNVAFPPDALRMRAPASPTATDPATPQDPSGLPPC
Procedure: Liver and muscle glycogen concentrations were assessed using amyloglucosidase digestion. Liver TAG content was measured using the method of Bligh and Dyer (Bligh and Dyer, Can. J. Biochem. Physiol. 37, 911-917, 1959): lipids were extracted from livers using 2:1 chloroform:methanol, and the Sekisui triglyceride-SL reagent was used to measure triglyceride content spectrophotometrically. Liver and muscle DAG content and liver acetyl- and malonyl-CoA concentrations were measured by LC-MS/MS as described by Yu and Perry (Yu, et al. J. Biol. Chem. 2002, 277, 50230-50236; Perry, et al., J. Clin. Invest. 2017, 127, 657-669). […] The samples were homogenized in […] ice-cold methanol using a TissueLyser and filtered through a Nanosep filter. LC-MS/MS (AbSCIEX 6500 QTRAP with a Shimadzu ultrafast liquid chromatography system, negative ion mode) was again used to monitor the relevant ion pairs: succinate and [^13C4]succinate, 117/99 and 121/103, respectively; malate and [^13C4]malate, 133/115 and 137/119, respectively; and citrate and [13C6]citrate, 191/173 and 197/179, respectively. […] Hepatic PKCε translocation, gluconeogenic enzyme protein expression, ApoB (antibody from Meridian Life Science, Memphis, Tenn.), and PGC1α (antibody from Santa Cruz Biotechnology, Dallas, Tex.) protein expression were assessed by western blot. Expression of each of these proteins was normalized to GAPDH.

[5] = tested on: hepatic gluconeogenesis and mitochondrial oxidation (VPC, VCS); experiment: Alanine replacement in 48 hr fasted rats; format: in vivo, rat
Procedure: Hepatic fluxes (whole-body glucose turnover, VPC and VCS), liver TCA cycle intermediate concentrations, and plasma metabolites and hormones were measured as described below (Flux Measurements). […] Liver and muscle glycogen concentrations were assessed using amyloglucosidase digestion. Liver TAG content was measured using the method of Bligh and Dyer (Bligh and Dyer, Can. J. Biochem. Physiol. 37, 911-917, 1959): lipids were extracted from livers using 2:1 chloroform:methanol, and the Sekisui triglyceride-SL reagent was used to measure triglyceride content spectrophotometrically. Liver and muscle DAG content and liver acetyl- and malonyl-CoA concentrations were measured by LC-MS/MS as described by Yu and Perry (Yu, et al. J. Biol. Chem. 2002, 277, 50230-50236; Perry, et al., J. Clin. Invest. 2017, 127, 657-669). […] The samples were homogenized in […] ice-cold methanol using a TissueLyser and filtered through a Nanosep filter. LC-MS/MS (AbSCIEX 6500 QTRAP with a Shimadzu ultrafast liquid chromatography system, negative ion mode) was again used to monitor the relevant ion pairs: succinate and [^13C4]succinate, 117/99 and 121/103, respectively; malate and [^13C4]malate, 133/115 and 137/119, respectively; and citrate and [13C6]citrate, 191/173 and 197/179, respectively. […] Hepatic PKCε translocation, gluconeogenic enzyme protein expression, ApoB (antibody from Meridian Life Science, Memphis, Tenn.), and PGC1α (antibody from Santa Cruz Biotechnology, Dallas, Tex.) protein expression were assessed by western blot. Expression of each of these proteins was normalized to GAPDH.

[6] = supraphysiologic leptin (˜1300 pM)
[7] = supraphysiologic leptin treatment

leptin: leptin hormone infused at stepwise increasing doses
HPA axis activity ([1]; both doses): suppressed
WAT lipolysis ([1]; leptin ˜60 pM): suppression
suppression of WAT lipolysis ([1]; leptin ˜1300 pM): abrogated
plasma glucose concentrations and endogenous glucose production rates ([1]; physiologic leptin replacement (˜60 pM)): marked reduction
growth hormone concentrations ([1]; supraphysiologic leptin): without any change
increase in plasma catecholamine concentrations [1, 6]: 4 fold
plasma glucose concentrations and endogenous glucose production [1, 6]: increases
plasma FGF-21 concentrations ([2]; 48-hr fasted rats): dose-dependent reduction
plasma growth hormone concentrations ([2]; 48-hr fasted rats): no difference
plasma corticosterone ([2]; all three infusion rates): suppressed
plasma insulin concentrations ([2]; highest dose): increased
increase in plasma epinephrine and norepinephrine concentrations ([2]; highest infusion rate): 2- to 3 fold
fatty acid and glycerol turnover ([2]; physiologic leptin replacement): suppressed
plasma NEFA, glycerol, β-hydroxybutyrate, and lactate concentrations ([2]; physiologic leptin replacement): suppression
hepatic glucose production ([2]; plasma leptin ˜60 pM): lowered
plasma glucose concentrations ([2]; plasma leptin ˜60 pM): lowered
plasma glucose concentrations and hepatic glucose production ([2]; plasma leptin ˜150 pM and ˜1250 pM): unable to lower
plasma NEFA, glycerol, β-hydroxybutyrate, and lactate concentrations ([2]; supraphysiologic leptin infusions): increases
fatty acid and glycerol turnover [2, 7]: increased
hepatic acetyl-CoA content and β-hydroxybutyrate turnover [2, 7]: increases

CN(C)C(=O)Nc1cccc(-c2ccc(N(C)C)cc2)c1 [atglistatin]
glucagon-stimulated VPC flux [3]: no effect
glucagon-stimulated glucose production [3]: no effect
plasma corticosterone concentration ([4]; 16- and 48-hr fasted rats): increases
plasma glucose concentrations ([4]; 16- and 48-hr fasted rats): decreased
plasma leptin ([4]; 16- and 48-hr fasted rats): reductions
hepatic acetyl-CoA content, hepatic gluconeogenesis, and plasma glucose and insulin concentrations ([4]; 16- to 48-hr fasted rats): suppressed
WAT lipolysis ([4]; 48-hr fasted rats): suppression
hepatic acetyl-CoA content ([4]; 48-hr fasted rats): suppression
plasma lactate, epinephrine, and norepinephrine concentrations and hepatic malonyl-CoA content ([4]; fasted rats): unchanged

C[C@H](N)C(=O)O [alanine]
plasma glucose, insulin, and lactate concentrations ([5]; alanine 45 mmol/(kg-min) 2 hr): increased
endogenous glucose production ([5]; alanine infusion): increased
increase in plasma leptin concentrations ([5]; alanine infusion): 3 fold
liver tricarboxylic acid cycle intermediate concentrations ([5]; alanine infusion): increased
plasma glucagon ([5]; alanine infusion): independent of any change
pyruvate carboxylase flux (VPC) ([5]; alanine infusion): increased
rates of hepatic mitochondrial oxidation (VCS) ([5]; alanine infusion): increased
